Results taken from patent US20220362386A1, “LIQUID COMPOSITIONS COMPRISING A LEVODOPA AMINO ACID CONJUGATE AND USES THEREOF” (NeuroDerm, Ltd., priority 2019, published 2022).
Counter-ions that a name gives are not always drawn. Like-named read-outs stand apart in the source and are kept apart here. Non-standard residues stand in square brackets, D forms with d. Residues, ends and D or L forms follow the SMILES beside them. Dopa = N[C@@H](Cc1ccc(O)c(O)c1)C(=O)O

Legend:
[1] = Comparative formulation tests, physical stability (Tables 32a-c, 33a-c); assay type: physicochemical; settings: LDAA TFA salt/CD formulation; for Physical stability (visual), Day 1: Day 1, room temperature; for Physical stability (visual), Day 2: Day 2, room temperature; for Physical stability (visual), Day 5: Day 5, room temperature after two days at 2-8° C.; for Physical stability (visual), Day 6: Day 6, room temperature after two days at 2-8° C.; for Physical stability (visual), Day 40: Day 40, returned to 2-8° C.
Procedure: It is noted that the formulations were similarly to those above; however, CD was added, and further, the amounts of the antioxidants, i.e., ascorbic acid and NAC, were added at three different concentrations, as detailed in Tables 32a-c below. Further, an additional amount of arginine was added to the solution in order to adjust the pH to a physiologically acceptable pH.
The formulations prepared as detailed in Tables 32a, 32b and 32c were (a) held at room temperature for two days; (b) transferred to a refrigerator (2-8° C.) for two days; and (c) transferred from the refrigerator to room temperature for an additional two days, during which they were assessed again for precipitants. The formulations were then returned to the refrigerator (2-8° C.) and assessed for precipitants on day 40. The physical stability of each formulation was assessed on the first two days and again on the last two days. The physical stability of the formulations was assessed visually. A clear solution was considered to be stable, while a solution comprising precipitants was considered to be physically unstable. The stability results of the formulations of Tables 32a, 32b and 32c are detailed in Tables 33a, 33b and 33c, respectively.

[2] = Protein binding, equilibrium dialysis method; assay type: in vitro ADME, human; settings: human, human plasma, pH 7.4, 1.0E-05M
Procedure: (§1) The protein binding values of various LDAA compounds in their TFA salt form (10^−5M) were tested in human plasma. The equilibrium dialysis technique was used to separate the fraction of the test compound that was unbound from the fraction of the test compound that bound to proteins during the test. The test was performed on 96-well plates in a dialysis block constructed from Teflon™.
(§2) The protein containing matrix used was human plasma, wherein the assay matrix was human serum albumin and alpha-1 acid glycoprotein. The protein matrix was spiked with each test compound at 10 μM (by default, n=2) with a final DMSO concentration of 1%. The dialysate compartment is loaded with phosphate buffered saline (PBS, pH 7.4), and the sample compartment was loaded with an equal volume of the spiked protein matrix. The dialysis plate was then sealed and incubated at 37° C. for 4 h.
(§3) Following the incubation, samples were taken from each compartment, diluted with PBS followed by the addition of acetonitrile, after which the samples were centrifuged. The supernatants were collected and analyzed by HPLC-MS/MS. The HPLC tests included a binary LC pump with an autosampler, a C18 column (2×20 mm), and gradient elution. The HPLC conditions were adjusted when necessary.
(§4) A control sample (n=2) was prepared from the spiked protein matrix in the same manner; however, no dialysis was performed on the control. It is noted that the control sample served as the bases for the recovery determination.
(§5) Acebutolol, quinidine, and warfarin were used in each assay as reference compounds, wherein it is known that those reference compounds provide low, medium and high human plasma protein binding values, respectively.
(§6) The % of the tested compound that is bound to proteins and the recovery values were calculated as follows:
(§7) Protein binding (%)=100×(Areap−Areab)/Areap
(§8) Recovery (%)=100×(Areap−Areab)/Areac
(§9) The determination of the recovery % serves as an indicator of reliability of the calculated protein binding value. […] This is most likely due to non-specific binding or degradation of the test compound. It is noted that a recovery of above 60% is considered to be reliable, while under 60% recovery, the results of the test are considered to be unreliable.

[3] = test system: human plasma; test: Protein binding, equilibrium dialysis method; assay type: in vitro ADME; settings: 1.0E-05M; 37° C., 4 h
Procedure: as §1, §2, §3, §4, §5, §6, §7, §8, §9

[4] = In-vitro metabolism of LDAA compounds using liver microsomes; assay type: in vitro ADME, human; settings: for half-life at 0.1 μM / microsomal CLint at 0.1 μM: both sexes, human, pooled human liver microsomes; for half-life at 0.1 μM: pH 7.4, 1.0E−07M, 0.1 mg/mL microsomal protein; for microsomal CLint at 0.1 μM: pH 7.4, calculated from the half-life; for microsomal CLint at 0.1 μM / % Compound Remaining 1st / % Compound Remaining 2nd / % Compound Remaining Mean: 1.0E−07M
Method in brief: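 Compounds at 0.1 μM were incubated at 37° C with pooled mixed-gender human liver microsomes (0.1 mg/mL protein) in phosphate buffer pH 7.4 plus an NADPH-generating system for 0–60 min. Remaining parent was quantified by HPLC-MS/MS versus time zero; t1/2 came from first-order fits, and Clint = 0.693/(t1/2×protein concentration).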

[5] = NB 144-15, ~0.1% Asc + ~0.1% NAC
[6] = NB 144-18, ~0.4% Asc + ~0.4% NAC
[7] = NB 144-20, ~0.8% Asc + ~0.8% NAC
[8] = read-out: Half-Life (minute) 1st
[9] = read-out: Half-Life (minute) 2nd
[10] = read-out: Half-Life (minute) Mean

SMILES | Physical stability (visual), Day 1 [1, 5] | Physical stability (visual), Day 2 [1, 5] | Physical stability (visual), Day 5 [1, 5] | Physical stability (visual), Day 6 [1, 5] | Physical stability (visual), Day 40 [1, 5] | Physical stability (visual), Day 1 [1, 6] | Physical stability (visual), Day 2 [1, 6] | Physical stability (visual), Day 5 [1, 6] | Physical stability (visual), Day 6 [1, 6] | Physical stability (visual), Day 40 [1, 6] | Physical stability (visual), Day 1 [1, 7] | Physical stability (visual), Day 2 [1, 7] | Physical stability (visual), Day 5 [1, 7] | Physical stability (visual), Day 6 [1, 7] | Physical stability (visual), Day 40 [1, 7] | recovery at 4 h, 10 μM ([2]; read-out: % Recovery 1st) | recovery at 4 h, 10 μM ([2]; read-out: % Recovery 2nd) | recovery at 4 h, 10 μM ([2]; read-out: % Recovery Mean) | % Protein Bound 1st [3] | % Protein Bound 2nd [3] | further results
N[C@@H](Cc1ccc(O)c(O)c1)C(=O)N[C@@H](Cc1c[nH]c2ccccc12)C(=O)O [LD-Trp TFA salt, Levodopa Tryptophan] (H-[Dopa]-Trp-OH) | Stable | Stable | Stable | Stable | Stable | Stable | Stable | Stable | Stable | Stable | Stable | Stable | Stable | Stable | Stable | 68% | 74% | 71% | 54.8% | 66% | % Protein Bound Mean [3]: 60%; half-life at 0.1 μM [4, 8]: 64 min; half-life at 0.1 μM [4, 9]: 61.4 min; half-life at 0.1 μM [4, 10]: > 60 min; microsomal CLint at 0.1 μM [4]: < 116 µL/min/mg; % Compound Remaining 1st ([4]; incubation time 0 minutes): 100%; % Compound Remaining 2nd ([4]; incubation time 0 minutes): 100%; % Compound Remaining Mean ([4]; incubation time 0 minutes): 100%; % Compound Remaining 1st ([4]; incubation time 15 minutes): 108.6%; % Compound Remaining 2nd ([4]; incubation time 15 minutes): {96.6} %; % Compound Remaining Mean ([4]; incubation time 15 minutes): 109%; % Compound Remaining 1st ([4]; incubation time 30 minutes): 115.2%; % Compound Remaining 2nd ([4]; incubation time 30 minutes): 92.2%; % Compound Remaining Mean ([4]; incubation time 30 minutes): 104%; % Compound Remaining 1st ([4]; incubation time 45 minutes): 70.5%; % Compound Remaining 2nd ([4]; incubation time 45 minutes): 63.1%; % Compound Remaining Mean ([4]; incubation time 45 minutes): 67%; % Compound Remaining 1st ([4]; incubation time 60 minutes): 55.1%; % Compound Remaining 2nd ([4]; incubation time 60 minutes): 51.6%; % Compound Remaining Mean ([4]; incubation time 60 minutes): 53%
N[C@@H](CSC[C@@H](NC(=O)[C@@H](N)Cc1ccc(O)c(O)c1)C(=O)O)C(=O)O (single isomer, unassigned; peak 1) [LD-LA1 TFA salt, Levodopa Lanthionine Peak 1 TFA Salt] | Stable | Stable | Stable | Stable | Stable | Precipitated | Precipitated | Precipitated | Precipitated | Precipitated | Stable | Stable | Stable | Stable | Stable | 75% | 71% | 73% | 24.4% | 27.8% | % Protein Bound Mean [3]: 26%; half-life at 0.1 μM [4, 8]: 139 min; half-life at 0.1 μM [4, 9]: 87.3 min; half-life at 0.1 μM [4, 10]: > 60 min; microsomal CLint at 0.1 μM [4]: < 116 µL/min/mg; % Compound Remaining 1st ([4]; incubation time 0 minutes): 100%; % Compound Remaining 2nd ([4]; incubation time 0 minutes): 100%; % Compound Remaining Mean ([4]; incubation time 0 minutes): 100%; % Compound Remaining 1st ([4]; incubation time 15 minutes): {129.4%; % Compound Remaining 2nd ([4]; incubation time 15 minutes): 110.4%; % Compound Remaining Mean ([4]; incubation time 15 minutes): 110%; % Compound Remaining 1st ([4]; incubation time 30 minutes): {125.6%; % Compound Remaining 2nd ([4]; incubation time 30 minutes): 77.6%; % Compound Remaining Mean ([4]; incubation time 30 minutes): 78%; % Compound Remaining 1st ([4]; incubation time 45 minutes): 79.7%; % Compound Remaining 2nd ([4]; incubation time 45 minutes): 77.9%; % Compound Remaining Mean ([4]; incubation time 45 minutes): 79%; % Compound Remaining 1st ([4]; incubation time 60 minutes): 74.2%; % Compound Remaining 2nd ([4]; incubation time 60 minutes): 65.6%; % Compound Remaining Mean ([4]; incubation time 60 minutes): 70%
N=C(N)NCCC[C@H](NC(=O)[C@@H](N)Cc1ccc(O)c(O)c1)C(=O)O [LD-Arg TFA salt, Levodopa Arginine TFA Salt] | Stable | Stable | Stable | Stable | Stable | Stable | Stable | Stable | Stable | Stable | Stable | Stable | Stable | Stable | Stable | 6% | 5% | 6% | 44.1% | 26.4% | % Protein Bound Mean [3]: 35%; half-life at 0.1 μM [4, 8]: 42.9 min; half-life at 0.1 μM [4, 9]: 40.5 min; half-life at 0.1 μM [4, 10]: 42 min; microsomal CLint at 0.1 μM [4]: 166 µL/min/mg; % Compound Remaining 1st ([4]; incubation time 0 minutes): 100%; % Compound Remaining 2nd ([4]; incubation time 0 minutes): 100%; % Compound Remaining Mean ([4]; incubation time 0 minutes): 100%; % Compound Remaining 1st ([4]; incubation time 15 minutes): 109.7%; % Compound Remaining 2nd ([4]; incubation time 15 minutes): 111.8%; % Compound Remaining Mean ([4]; incubation time 15 minutes): 111%; % Compound Remaining 1st ([4]; incubation time 30 minutes): 84.2%; % Compound Remaining 2nd ([4]; incubation time 30 minutes): 90.9%; % Compound Remaining Mean ([4]; incubation time 30 minutes): 88%; % Compound Remaining 1st ([4]; incubation time 45 minutes): 70%; % Compound Remaining 2nd ([4]; incubation time 45 minutes): {52.4} %; % Compound Remaining Mean ([4]; incubation time 45 minutes): 70%; % Compound Remaining 1st ([4]; incubation time 60 minutes): 37.3%; % Compound Remaining 2nd ([4]; incubation time 60 minutes): 38.6%; % Compound Remaining Mean ([4]; incubation time 60 minutes): 38%
